Assay results taken from patent US9254292B2, “Fused tetracycle derivatives and methods of use thereof for the treatment of viral diseases” (Merck Sharp & Dohme Corp., priority 2010, dated 2016).

Experiments:
HCV replicon 1a WT = test: Cell-based HCV replicon assay, genotype 1a WT; set-up: species or system Hepatitis C virus; settings: replicon cells, day 3, replicon RNA by real time PCR (Taqman)
Experimental: (§1) To measure cell-based anti-HCV activity of selected compounds of the present invention, replicon cells were seeded at 5000 cells/well in 96-well collagen I-coated Nunc plates in the presence of the test compound. Various concentrations of test compound, typically in 10 serial 2-fold dilutions, were added to the assay mixture, with the starting concentration ranging from 250 μM to 1 μM. The final concentration of DMSO was 0.5%, fetal bovine serum was 5%, in the assay media. Cells were harvested on day 3 by the addition of 1× cell lysis buffer (Ambion cat #8721). The replicon RNA level was measured using real time PCR (Taqman assay). The amplicon was located in 5B. The PCR primers were: 5B.2F, ATGGACAGGCGCCCTGA (SEQ ID NO. 1); 5B.2R, […] (SEQ ID NO. 2); the probe sequence was FAM-labeled CACGCCATGCGCTGCGG (SEQ ID NO. 3). GAPDH RNA was used as endogenous control and was amplified in the same reaction as NS5B (multiplex PCR) using primers and VIC-labeled probe recommended by the manufacturer (PE Applied Biosystem). The real-time RT-PCR reactions were run on ABI PRISM 7900HT Sequence Detection System using the following program: 48° C. for 30 minutes, 95° C. for 10 minutes, 40 cycles of 95° C. for 15 sec, 60° C. for 1 minutes The ΔCT values (CT5B-CTGAPDH) were plotted against the concentration of test compound and fitted to the sigmoid dose-response model using XLfit4 (MDL). EC50 was defined as the concentration of inhibitor necessary to achieve ΔCT=1 over the projected baseline; EC90 the concentration necessary to achieve ΔCT=3.2 over the baseline. Alternatively, to quantitate the absolute amount of replicon RNA, a standard curve was established by including serially diluted T7 transcripts of replicon RNA in the Taqman assay. All Taqman reagents were from PE Applied Biosystems. Such an assay procedure was described in detail in e.g. Malcolm et al., Antimicrobial Agents and Chemotherapy 50: 1013-1020 (2006).
(§2) HCV replicon assay data was calculated for selected compounds of the present invention using this method and is provided in the table below.

HCV replicon 1b WT = test: Cell-based HCV replicon assay, genotype 1b WT; set-up: species or system Hepatitis C virus; settings: replicon cells, day 3, replicon RNA by real time PCR (Taqman)
Experimental: as §1, §2

HCV replicon 1a Y93H = test: Cell-based HCV replicon assay, genotype 1a Y93H mutant; settings: Hepatitis C virus, 72 h, read-out: Replicon EC50 1a Y93H
Experimental: To measure cell-based anti-HCV activity of selected compounds of the present invention, replicon cells were seeded at 5000 cells/well in 96-well collagen I-coated Nunc plates in the presence of the test compound. Various concentrations of test compound, typically in 10 serial 2-fold dilutions, were added to the assay mixture, with the starting concentration ranging from 250 μM to 1 μM. The final concentration of DMSO was 0.5%, fetal bovine serum was 5%, in the assay media. Cells were harvested on day 3 by the addition of 1× cell lysis buffer (Ambion cat #8721). The replicon RNA level was measured using real time PCR (Taqman assay). The amplicon was located in 5B. The PCR primers were: 5B.2F, ATGGACAGGCGCCCTGA (SEQ ID NO. 1); 5B.2R, […] (SEQ ID NO. 2); the probe sequence was FAM-labeled CACGCCATGCGCTGCGG (SEQ ID NO. 3). GAPDH RNA was used as endogenous control and was amplified in the same reaction as NS5B (multiplex PCR) using primers and VIC-labeled probe recommended by the manufacturer (PE Applied Biosystem). […] Alternatively, to quantitate the absolute amount of replicon RNA, a standard curve was established by including serially diluted T7 transcripts of replicon RNA in the Taqman assay. […]
as §2

Row | Structure (SMILES) | EC50 (HCV replicon 1a WT; Hepatitis C virus, 72 h) [nM] | EC50 (HCV replicon 1b WT; Hepatitis C virus, 72 h) [nM] | EC50 (HCV replicon 1a Y93H) [nM] | EC50 (HCV replicon 1a WT) [nM] | EC50 (HCV replicon 1b WT) [nM]
1 | COC(=O)N[C@H](C(=O)N1CCC[C@H]1c1ncc(-c2ccc3c(c2)OCCc2c-3oc3ccc(-c4cnc([C@@H]5CCCN5C(=O)[C@@H](NC(=O)OC)C(C)C)[nH]4)cc23)[nH]1)C(C)C [Compound 5] | 0.015 | 0.001 | 186 | – | –
2 | COC(=O)NC(C(=O)N1CCC[C@H]1c1ncc(-c2ccc3c(c2)cc2n3CCOc3cc(-c4cnc(C5CCCN5C(=O)[C@@H](NC(=O)OC)C(C)C)[nH]4)ccc3-2)[nH]1)C(C)C (some centres unmarked) [Compound 7] | 0.01 | 0.003 | 565 | – | –
3 | COC(=O)NC(C(=O)N1CCC[C@H]1c1ncc(-c2ccc3c(c2)c(F)c2n3CCOc3cc(-c4cnc(C5CCCN5C(=O)[C@@H](NC(=O)OC)C(C)C)[nH]4)ccc3-2)[nH]1)C(C)C (some centres unmarked) [Compound 8] | – | – | – | 0.016 | 0.007
4 | COC(=O)NC(C(=O)N1CCC[C@H]1c1ncc(-c2ccc3c(c2)c(F)c2n3CCOc3cc(-c4cnc(C5CCCN5C(=O)[C@@H](NC(=O)OC)C(C)C)[nH]4)ccc3-2)[nH]1)C(C)C (some centres unmarked) [Compound 9] | – | – | – | 1.18 | 0.27
5 | COC(=O)NC(C(=O)N1CCC[C@@H]1c1ncc(-c2ccc3c(c2)c(F)c2n3CCOc3cc(-c4cnc(C5CCCN5C(=O)[C@@H](NC(=O)OC)C(C)C)[nH]4)ccc3-2)[nH]1)C(C)C (some centres unmarked) [Compound 10] | – | – | – | 2 | 0.7
6 | COC(=O)NC(C(=O)N1CCC[C@@H]1c1ncc(-c2ccc3c(c2)c(F)c2n3CCOc3cc(-c4cnc(C5CCCN5C(=O)[C@@H](NC(=O)OC)C(C)C)[nH]4)ccc3-2)[nH]1)C(C)C (some centres unmarked) [Compound 11] | – | – | – | 0.01 | 0.005
